Values after ≈ are worked out from the molar mass of the structure shown. Read-outs that look alike come from different tables or passages of the source.
Key:
Assay type in all cases: cell-based
[1] = tested on: Klebsiella pneumoniae: Ciprofloxacin-resistant isolate, ESBL, clinical isolate (KP-3700); assay: MIC determination (CLSI), KP-3700
Experimental: (§1) The in vitro antibacterial activity of compounds described in the Examples was evaluated by minimum inhibitory concentration (MIC) testing according to Clinical and Laboratory Standards Institute (CLSI, formerly NCCLS) guidelines. See: Clinical and Laboratory Standards Institute. Methods for Dilution Antimicrobial Susceptibility Tests for Bacteria that Grow Aerobically; Approved Standard-Seventh Edition. CLSI document M7-A7 [ISBN 1-56238-587-9]. Clinical and Laboratory Standards Institute, 940 West Valley Road, Suite 1400, Wayne, Pa. 19087-1898 USA, 2006; also Clinical and Laboratory Standards Institute. Performance Standards for Antimicrobial Susceptibility Testing; Eighteenth Informational Supplement. CLSI document M100-S18 [ISBN1-56238-653-0]. Clinical and Laboratory Standards Institute.
(§2) The following bacterial strains were used in these MIC determinations:
4) Klebsiella pneumoniae: Ciprofloxacin-resistant isolate, expresses extended-spectrum beta-lactamases (ESBL), clinical isolate, labeled as KP-3700 in Tables 1, 2, and 3.

[2] = tested on: Escherichia coli EC-1: VOGEL, mouse virulent; assay: MIC determination (CLSI), EC-1; conditions: for EC-1 MIC: Escherichia coli EC-1 VOGEL, mouse virulent; for MIC: Escherichia coli
Experimental: as §1, §2
3) Escherichia coli EC-1: VOGEL, mouse virulent labeled as EC-1 in Tables 1, 2 and 3;

[3] = tested on: Pseudomonas aeruginosa UI-18: Wild-type (PA-7); assay: MIC determination (CLSI), PA-7; conditions: for PA-7 MIC: Pseudomonas aeruginosa UI-18 wild-type PA-7; for MIC: Pseudomonas aeruginosa
Experimental: as §1, §2
1) Pseudomonas aeruginosa UI-18: Wild-type, labeled as PA-7 in Tables 1, 2 and 3;

[4] = tested on: Acinetobacter baumanii/haemolyticus: Multidrug-resistant clinical isolate (AB-3167); assay: MIC determination (CLSI), AB-3167; conditions: for AB-3167 MIC: Acinetobacter baumanii/haemolyticus multidrug-resistant clinical isolate AB-3167; for MIC: Acinetobacter baumannii
Experimental: as §1, §2
2) Acinetobacter baumanii/haemolyticus: Multidrug-resistant clinical isolate labeled as AB-3167 in Tables 1, 2 and 3;

Structure (SMILES)	KP-3700 MIC [1]	EC-1 MIC [2]	PA-7 MIC [3] [µg/mL]	AB-3167 MIC [4]	MIC ([2]; read-out: EC-1 MIC) [µg/mL]	MIC ([3]; Table 3, read-out: PA-7 MIC) [µg/mL]	MIC ([4]; Table 3, read-out: AB-3167 MIC) [µg/mL]	MIC ([2]; read-out: EC-1: (MIC)) [µg/mL]	MIC ([3]; Table 1, MIC, read-out: PA-7 (MIC)) [µg/mL]	MIC ([4]; Table 1, MIC, read-out: AB-3167 (MIC)) [µg/mL]
CC(CCc1ccc(-c2ccc(C#N)c(F)c2)cc1)(C(=O)NO)S(C)(=O)=O (stereo not drawn) [Example 45]	4 µg/mL	0.5 µg/mL	1	≧64 mg/L						
Cc1ccc(C)c(-c2ccc(CCC(C)(C(=O)NO)S(C)(=O)=O)cc2)c1 (racemic) [Example 73]	≧64 mg/L	16 µg/mL	32	4 µg/mL						
CC(CCc1ccc(-c2ccc(CN)cc2)cc1)(C(=O)NO)S(C)(=O)=O (stereo not drawn) [Example 111]	≧64 mg/L	≧64 mg/L	32	≧64 mg/L						
CSc1ccccc1-c1ccc(CCC(C)(C(=O)NO)S(C)(=O)=O)cc1 (stereo not drawn) [Example 94]	≧64 mg/L	32 µg/mL	32	≧64 mg/L						
COC(C)c1ccc(-c2ccc(CCC(C)(C(=O)NO)S(C)(=O)=O)cc2)cc1 (mixture of isomers) [Example 71]	16 µg/mL	4 µg/mL	4	32 µg/mL						
CC(CCc1ccc(OCCC2CCCC2)cc1)(C(=O)NO)S(C)(=O)=O (stereo not drawn) [Example 312, 4-[4-(2-cyclopentylethoxy)phenyl]-N-hydroxy-2-methyl-2-(methylsulfonyl)butanamide]	≧64 mg/L				8 (≈ 20.9 µM)	8 (≈ 20.9 µM)	2 (≈ 5.21 µM)			
CC(CCc1ccc(-c2ccc(C#N)c(O)c2)cc1)(C(=O)NO)S(C)(=O)=O (stereo not drawn) [Example 142]	≧64 mg/L	≧64 mg/L	32	≧64 mg/L						
CC(CCc1ccc(-c2ccc(F)cc2F)cc1)(C(=O)NO)S(C)(=O)=O (racemic) [Example 53]	4 µg/mL	1 µg/mL	0.5	8 µg/mL						
Cc1cc(C)cc(-c2ccc(CCC(C)(C(=O)NO)S(C)(=O)=O)cc2)c1 (racemic) [Example 52]	4 µg/mL	2 µg/mL	2	8 µg/mL						
Cc1nc(-c2ccc(CCC(C)(C(=O)NO)S(C)(=O)=O)cc2)ccc1C#N (stereo not drawn) [Example 131]	16 µg/mL	4 µg/mL	4	≧64 mg/L						
CC(CCc1ccc(OCc2ccc(F)cc2C(F)(F)F)cc1)(C(=O)NO)S(C)(=O)=O (stereo not drawn) [Example 249, 4-(4-{[4-fluoro-2-(trifluoromethyl)benzyl]oxy}phenyl)-N-hydroxy-2-methyl-2-(methylsulfonyl)butanamide]	≧64 mg/L				16 (≈ 34.5 µM)	16 (≈ 34.5 µM)	16 (≈ 34.5 µM)			
Cn1ccnc1-c1ccc(-c2ccc(CCC(C)(C(=O)NO)S(C)(=O)=O)cc2)cc1 (stereo not drawn) [Example 92]	32 µg/mL	16 µg/mL	32	≧64 mg/L						
COc1ccc(-c2ccc(CCC(C)(C(=O)NO)S(C)(=O)=O)cc2)c(OC)c1 (racemic) [Example 65]	2 µg/mL	1 µg/mL	2	32 µg/mL						
COc1ccc(-c2ccc(CCC(C)(C(=O)NO)S(C)(=O)=O)cc2)cn1 (racemic) [Example 72]	32 µg/mL	8 µg/mL	4	≧64 mg/L						
CCCCOc1ccc(CCC(C)(C(=O)NO)S(C)(=O)=O)cc1 (stereo not drawn) [Example 236, 4-(4-butoxyphenyl)-N-hydroxy-2-methyl-2-(methylsulfonyl)butanamide]	≧64 mg/L				16 (≈ 46.6 µM)	8 (≈ 23.3 µM)	32 (≈ 93.2 µM)			
CC(CCc1ccc(OCc2cc(C#N)ccc2F)cc1)(C(=O)NO)S(C)(=O)=O (stereo not drawn) [Example 275, 4-{4-[(5-cyano-2-fluorobenzyl)oxy]phenyl}-N-hydroxy-2-methyl-2-(methylsulfonyl)butanamide]	≧64 mg/L				≥ 64	32 (≈ 76.1 µM)	≥ 64			
CC(CCc1ccc(-c2ccc(C#N)c(C#N)c2)cc1)(C(=O)NO)S(C)(=O)=O (stereo not drawn) [Example 125]	32 µg/mL	8 µg/mL	4	≧64 mg/L						

Structure (SMILES)	KP-3700 MIC [1]	EC-1 MIC [2]	PA-7 MIC [3] [µg/mL]	AB-3167 MIC [4]	MIC ([2]; read-out: EC-1 MIC) [µg/mL]	MIC ([3]; Table 3, read-out: PA-7 MIC) [µg/mL]	MIC ([4]; Table 3, read-out: AB-3167 MIC) [µg/mL]	MIC ([2]; read-out: EC-1: (MIC)) [µg/mL]	MIC ([3]; Table 1, MIC, read-out: PA-7 (MIC)) [µg/mL]	MIC ([4]; Table 1, MIC, read-out: AB-3167 (MIC)) [µg/mL]
CC(CCc1ccc(-c2cc(C(F)(F)F)c(C#N)cn2)cc1)(C(=O)NO)S(C)(=O)=O (stereo not drawn) [Example 124]	≧64 mg/L	8 µg/mL	8	≧64 mg/L						
Cc1ccc(-c2noc(COc3ccc(CCC(C)(C(=O)NO)S(C)(=O)=O)cc3)n2)cc1 (stereo not drawn) [Example 269, N-hydroxy-2-methyl-4-(4-{[3-(4-methylphenyl)-1,2,4-oxadiazol-5-yl]methoxy}phenyl)-2-(methylsulfonyl)butanamide]	≧64 mg/L				4 (≈ 8.7 µM)	≥ 64	≥ 64			
CC(CCc1ccc(-c2ccc(CCN)cc2)cc1)(C(=O)NO)S(C)(=O)=O (stereo not drawn) [Example 114]	≧64 mg/L	≧64 mg/L	16	≧64 mg/L						
CC(CCc1ccc(Oc2ccccc2)cc1)(C(=O)NO)S(C)(=O)=O (stereo not drawn) [Example 10, N-Hydroxy-2-methyl-2-(methylsulfonyl)-4-(4-phenoxyphenyl)butanamide]	32 µg/mL							16 (≈ 44 µM)	8 (≈ 22 µM)	32 (≈ 88 µM)
COc1ccc(-c2ccc(CCC(C)(C(=O)NO)S(C)(=O)=O)cc2)cc1C (racemic) [Example 67]	8 µg/mL	4 µg/mL	16	≧64 mg/L						
CC(CCc1ccc(-c2cncnc2)cc1)(C(=O)NO)S(C)(=O)=O (racemic) [Example 80]	32 µg/mL	8 µg/mL	8	≧64 mg/L						
CC(CCc1ccc(-c2cc(F)c(OCCO)c(F)c2)cc1)(C(=O)NO)S(C)(=O)=O (stereo not drawn) [Example 150]	8 µg/mL	2 µg/mL	2	32 µg/mL						
Cc1cc(CCO)ccc1-c1ccc(CCC(C)(C(=O)NO)S(C)(=O)=O)cc1 (stereo not drawn) [Example 156]	8 µg/mL	16 µg/mL	8	16 µg/mL						
CCOc1ccc(CCC(C)(C(=O)NO)S(C)(=O)=O)cc1 (stereo not drawn) [Example 235, 4-(4-ethoxyphenyl)-N-hydroxy-2-methyl-2-(methylsulfonyl)butanamide]	≧64 mg/L				32 (≈ 101 µM)	16 (≈ 50.7 µM)	≥ 64			
CC(CCc1ccc(OCC2CC2)cc1)(C(=O)NO)S(C)(=O)=O (stereo not drawn) [Example 246, 4-[4-(cyclopropylmethoxy)phenyl]-N-hydroxy-2-methyl-2-(methylsulfonyl)butanamide]	≧64 mg/L				32 (≈ 93.7 µM)	≥ 64	≥ 64			
CC(CCc1ccc(OCC2CCC2)cc1)(C(=O)NO)S(C)(=O)=O (stereo not drawn) [Example 266, 4-[4-(cyclobutylmethoxy)phenyl]-N-hydroxy-2-methyl-2-(methylsulfonyl)butanamide]	≧64 mg/L				32 (≈ 90 µM)	16 (≈ 45 µM)	32 (≈ 90 µM)			
Cc1ccccc1-c1ccc(CCC(C)(C(=O)NO)S(C)(=O)=O)cc1 (racemic) [Example 58]	32 µg/mL	8 µg/mL	4	32 µg/mL						
CC(CCc1ccc(OCCc2ccncc2)cc1)(C(=O)NO)S(C)(=O)=O (stereo not drawn) [Example 311, N-hydroxy-2-methyl-2-(methylsulfonyl)-4-[4-(2-pyridin-4-ylethoxy)phenyl]butanamide]	≧64 mg/L				≥ 64	32 (≈ 81.5 µM)	≥ 64			
CC(CCc1ccc(-c2ccc(O)cc2F)cc1)(C(=O)NO)S(C)(=O)=O (stereo not drawn) [Example 149]	8 µg/mL	2 µg/mL	1	≧64 mg/L						
Cc1cc(OCCO)ccc1-c1ccc(CCC(C)(C(=O)NO)S(C)(=O)=O)cc1 (stereo not drawn) [Example 151]	32 µg/mL	8 µg/mL	4	≧64 mg/L						
CNC(=O)c1ccc(-c2ccc(CCC(C)(C(=O)NO)S(C)(=O)=O)cc2)cc1 (racemic) [Example 85]	≧64 mg/L	32 µg/mL	16	≧64 mg/L						
